Assay results taken from patent publication US8258127B2, “Methods for treating latent tuberculosis” (Institut National de la Sante et de la Recherche Medicale …, priority 2008, dated 2012).

Key:
[1] = target: T1, LdtMt1 L,D-transpeptidase (Mycobacterium tuberculosis, UniProt O53638); experiment: Inhibition of LdtMt1 L,D-transpeptidase activity by β-lactams (formation of mDap3→mDap3 cross-linked dimers, mass spectrometry); assay type: biochemical; conditions: for blocking of the L,D-transpeptidase enzyme (summary in words): summary statement of the description
Method: The disaccharide-tetrapeptide containing amidated meso-diaminopimelic acid (GlcNAc-MurNAc-L-Ala^1-D-iGln^2-mesoDapNH2^3-D-Ala^4) was purified from C. jeikeium strain CIP103337 and the concentration w as determined by amino acid analysis after acid hydrolysis (Arbeloa et al., 2007, J. Biol. Chem., Vol. 279: 41546-41556; Auger et al., FEMS Microbiol. Lett., Vol. 219: 115-119). In vitro formation of muropeptide dimers was tested in 10 μL of 50 mM Tris-HCl (pH 7.5) containing 300 mM NaCl, 11 μM LdtMt1, and 280 μM disaccharide-tetrapeptide. The reaction mixture was incubated for 2 hours at 37° C., treated with ammonium hydroxide, and the resulting lactoyl-peptides were analyzed by nanoelectrospray tandem mass spectrometry using N2 as the collision gas (Arbeloa et al., 2007, Supra).
LdtMt1 (12.5 μM) was pre-incubated for 20 min at 37° C. with ampicillin (Bristol-Myers), ceftriaxone (Roche Applied Science), and imipenem (Merck Sharpe and Dhome-Chibret) in 50 mM Tris-HCl (pH 7.5) containing 300 mM NaCl (buffer A). The L,D-transpeptidation reaction was started by the addition of the disaccharide-tetrapeptide (final concentration 280 μM) and allowed to proceed for 2 hours at 37° C. The reaction products were detected by mass spectrometry (Mainardi et al., 2007, J. Biol. Chem., Vol. 282: 30414-30422).
To investigate inhibition of the L,D-transpeptidase activity of LdtMt1 by β-lactams, the formation of dimers containing mDap^3→mDap^3 cross-links was tested in the presence of various drug concentrations.

[2] = target: T1, LdtMt1 L,D-transpeptidase; experiment: Formation of enzyme-drug adducts between LdtMt1 and β-lactams (electrospray mass spectrometry); assay type: binding; conditions: LdtMt1 12.5 μM, β-lactam 125 μM, 1 h at 37° C.; for Average mass Observated of LdtMt1-β-lactam adduct: ND: not detected, native protein 24,584.4
Method: LdtMt1 (12.5 μM) was incubated without antibiotic (left panel) or with 125 μM imipenem (right panel). Proteins and adducts were detected by electrospray mass spectrometry. Peaks at m/z 848.75 and 879.03 correspond to the [M+29H]^29+ and [M+28H]^28+ ions of the native protein, respectively (deduced average mass of 24,584.4). Peaks at m/z 859.08 and 889.65 correspond to the [M+29H]^29+ and [M+28H]^28+ ions of the LdtMt1-imipenem adduct (deduced average mass of 24,883.5).
The formation of enzyme-drug adducts was tested by incubating LdtMt1 (12.5 μM) with β-lactams (125 μM) for 1 h at 37° C. in buffer A. The reaction mixture was dialyzed against water for 30 min and the average mass of proteins and protein-β-lactam adducts was determined as described (Mainardi et al., 2007, Supra).
To gain insight into the mechanism of LdtMt1 inhibition by β-lactams, binding of the drugs to the enzyme was tested by electrospray mass spectrometry. […] Adducts matching increments of the average mass of other carbapenems, meropenem and ertapenem, were also detected (Table 2 hereunder).

[3] = LdtMt1 12.5 μM, pre-incubated 20 min at 37° C., disaccharide-tetrapeptide 280 μM, 2 hours

T1 sequence (O53638 32-251 limits assumed): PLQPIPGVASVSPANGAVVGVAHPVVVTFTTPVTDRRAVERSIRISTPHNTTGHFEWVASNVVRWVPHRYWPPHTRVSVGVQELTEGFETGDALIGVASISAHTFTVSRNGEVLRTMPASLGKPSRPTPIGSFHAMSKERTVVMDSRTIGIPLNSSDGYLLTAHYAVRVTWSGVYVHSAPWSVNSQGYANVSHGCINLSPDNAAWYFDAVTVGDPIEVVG

Row | SMILES | drug concentration required for full inhibition of enzyme activity [1, 3] [µM] | formation of adduct with LdtMt1 (in words) [2] | blocking of the L,D-transpeptidase enzyme (summary in words) [1] | Average mass Observated of LdtMt1-β-lactam adduct [2] | highest tested concentration without inhibition of LdtMt1 [1, 3] [mM]
1 | CO/N=C(\C(=O)N[C@@H]1C(=O)N2C(C(=O)O)=C(CSc3nc(=O)c(=O)[nH]n3C)CS[C@H]12)c1csc(N)n1 [Ceftriaxone, ceftriaxone] | 360 | No adduct was detected |  |  | 
2 | C[C@@H](O)[C@H]1C(=O)N2C(C(=O)O)=C(S[C@@H]3CN[C@H](C(=O)Nc4cccc(C(=O)O)c4)C3)[C@H](C)[C@H]12 [Ertapenem, ertapenem] |  | detected | block the said L,D-transpeptidase enzyme | 25,059.9 | 
3 | C[C@@H](O)[C@H]1C(=O)N2C(C(=O)O)=C(S[C@@H]3CN[C@H](C(=O)N(C)C)C3)[C@H](C)[C@H]12 [Meropenem, meropenem] |  | detected | block the said L,D-transpeptidase enzyme | 24,967.8 | 
4 | CC1(C)S[C@@H]2[C@H](NC(=O)[C@H](N)c3ccccc3)C(=O)N2[C@H]1C(=O)O [Ampicillin, ampicillin] |  | No adduct was detected | inactive |  | > 5.7
